{"source": "PubChem BioAssay AID504626", "about": "(Southern Research Specialized Biocontainment Screening …, 2011)", "system": "human PBMC, CCR5-tropic HIV-1 replication, RT activity", "assay": "inhibitors of CCR5-tropic HIV-1 replication in PBMCs, dose response, cell-based, human PBMC, R5-tropic strain, set 3 (AID 504626)"}
{"molecule": "Cc1c2c(=O)n(-c3nc4ccccc4s3)nc-2cc(O)n1Cc1ccccc1", "values": [{"measurement": "IC50", "result": 1570, "unit": "nM"}]}
